Results published in patent publication US20100099113A1, “MINIMIZED SMALL PEPTIDES WITH HIGH AFFINITY FOR FACTOR VIII AND FACTOR VIII-LIKE PROTEINS” (Technische Universitat Muenchen, priority 2006, published 2010).
Where no end group is shown, it is not given here. [ ]: non-standard residue; d: D form. Bpa = N[C@@H](Cc1ccc(C(=O)c2ccccc2)cc1)C(=O)O; 2Nal = N[C@@H](Cc1ccc2ccccc2c1)C(=O)O; Abu = CC[C@H](N)C(=O)O

Tests used:
[1] = target: T1, Plasma-derived (pd-) human Factor VIII (Homo sapiens, UniProt P00451); test: Binding of 125I-labeled pd-FVIII to peptide-coated Toyopearl resin (micro-beads assay); conditions: peptide immobilized on Toyopearl AF-Epoxy-650M resin; 125I-pd-FVIII, 2 hours room temperature; percent of maximal achievable binding (anti-FVIII Mab 8860-coated resin); mean ± SD of four determinations
T1 construct: from tissue; host or cells: human blood plasma (FVIII concentrate)
Protocol: Peptides S1 to S84 were immobilized on the Toyopearl AF-Epoxy-650M resin (Tosoh Biosep) as described by Jungbauer et al. For immobilization, 2.5 mg of each peptide was dissolved in 0.25 mL of the immobilization buffer (0.2 M sodium bicarbonate, pH 10.3), and 0.036 g of the dry resin powder (corresponding to 0.125 mL of swollen resin) was added, followed by incubation of the mixture with gentle rotation for 48 hours. Upon incubation for 48 hours the resin was washed once with immobilization buffer, once with 1 M NaCl and then 3 times with binding buffer, and binding of ^125I-labeled pd-FVIII to the peptide-coated and control resin was tested. The coupling density of each peptide in each of the reported experiments was as mentioned in Table 1. The control 0.25 mL portion of the resin was similarly treated in parallel experiment in the absence of peptide and was subsequently used as a control (designated as Background) in ^125I-pd-FVIII binding experiments. ^125I-pd-FVIII Bound/Background ratios were calculated as the amount of ^125I-pd-FVIII, bound to an immobilized peptide, divided by that bound to uncoated control resin, prepared as described above. This ratio represents a Signal/Noise ratio for the micro-beads assay, since ^125I-pd-FVIII bound to peptide represents the signal value and ^125I-pd-FVIII bound to peptide-uncoated resin represents the background (noise) value.
Plasma-derived (pd-) human Factor VIII (FVIII) was purified from concentrate by immunoaffinity chromatography on an anti-FVIII monoclonal antibody column followed by subsequent concentration of pd-FVIII by ion-exchange chromatography using Resource Q HR5/5 column.
The resin with immobilized peptides was washed in the binding buffer (0.01 M Hepes, 0.1 M NaCl, 5 mM CaCl2, 0.01% Tween-80). Subsequently, the resin was diluted in the binding buffer as 1:7 slurry and aliquoted into Eppendorf tubes (40 μL per tube). ^125I-pd-FVIII (100000 cpm in 10 μL) was added to the tubes and the volume of the mixture was adjusted to 100 μL by adding 50 μL of the binding buffer containing 4% BSA to give a 2% final concentration of BSA. After 2 hours of incubation at room temperature on a rotator, the samples were washed 4 times in the binding. After each wash the tubes were centrifuged at 5000 rpm for 1 min in an Eppendorf microcentrifuge, supernatant was discarded, and the resin was re-suspended in the washing buffer, followed by centrifugation under the same conditions. After four washes the tubes with pellet without supernatant were counted for radioactivity. The resin without peptide was processed similarly to account for non-specific pd-FVIII binding to tubes and resin itself, and the radioactivity in this control tube was considered as a background value. Since ^125I-pd-FVIII contains the some fraction damaged during radiolabeling, binding was calculated as a percent of maximal achievable binding, determined in separate experiment with anti-FVIII Mab 8860-coated resin.
All the measurements were performed in duplicates. Each experiment was performed using two independently prepared immobilized peptide samples. The data presented in each table are the mean values of the four determinations: duplicate determination in the two assays performed with beads on which peptides were independently immobilized on the different days. The value of standard deviation of the above quadruplicate determinations (duplicate determinations in two independent experiments) were typically less than 10% of the measured values of ^125I-pd-FVIII binding to peptides.

[2] = target: T2, ReFacto (Homo sapiens, UniProt P00451, DEL763-1656); test: Binding of ReFacto to peptide-coated resin; conditions: peptide immobilized on resin; Table 1
T2 construct: purchased Wyeth-Ayerst Pharmacia and Upjohn; host or cells: CHO cells
T2 sequence (P00451 with tags, fused parts or gaps DEL763-1656 limits assumed): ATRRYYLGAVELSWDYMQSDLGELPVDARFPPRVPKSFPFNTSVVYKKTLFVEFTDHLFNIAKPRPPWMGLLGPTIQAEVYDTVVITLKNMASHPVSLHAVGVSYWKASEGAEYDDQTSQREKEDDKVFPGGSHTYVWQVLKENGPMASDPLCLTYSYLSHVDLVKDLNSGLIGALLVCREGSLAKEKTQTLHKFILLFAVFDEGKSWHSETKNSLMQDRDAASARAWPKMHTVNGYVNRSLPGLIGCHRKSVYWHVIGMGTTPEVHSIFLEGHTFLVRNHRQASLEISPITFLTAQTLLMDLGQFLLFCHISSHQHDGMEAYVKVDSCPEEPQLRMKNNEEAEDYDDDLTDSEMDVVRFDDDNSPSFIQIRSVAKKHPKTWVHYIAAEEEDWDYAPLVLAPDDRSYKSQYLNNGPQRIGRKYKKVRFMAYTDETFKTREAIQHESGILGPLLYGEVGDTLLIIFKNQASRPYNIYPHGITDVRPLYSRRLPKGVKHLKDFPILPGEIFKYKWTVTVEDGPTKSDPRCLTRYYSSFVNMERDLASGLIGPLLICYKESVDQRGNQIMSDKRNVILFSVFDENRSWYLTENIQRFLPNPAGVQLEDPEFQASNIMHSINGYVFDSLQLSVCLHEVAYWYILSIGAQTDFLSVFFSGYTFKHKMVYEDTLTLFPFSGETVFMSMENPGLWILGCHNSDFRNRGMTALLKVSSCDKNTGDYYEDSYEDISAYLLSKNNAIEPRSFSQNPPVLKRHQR
T2 sequence (P00451 1668-2351 limits assumed): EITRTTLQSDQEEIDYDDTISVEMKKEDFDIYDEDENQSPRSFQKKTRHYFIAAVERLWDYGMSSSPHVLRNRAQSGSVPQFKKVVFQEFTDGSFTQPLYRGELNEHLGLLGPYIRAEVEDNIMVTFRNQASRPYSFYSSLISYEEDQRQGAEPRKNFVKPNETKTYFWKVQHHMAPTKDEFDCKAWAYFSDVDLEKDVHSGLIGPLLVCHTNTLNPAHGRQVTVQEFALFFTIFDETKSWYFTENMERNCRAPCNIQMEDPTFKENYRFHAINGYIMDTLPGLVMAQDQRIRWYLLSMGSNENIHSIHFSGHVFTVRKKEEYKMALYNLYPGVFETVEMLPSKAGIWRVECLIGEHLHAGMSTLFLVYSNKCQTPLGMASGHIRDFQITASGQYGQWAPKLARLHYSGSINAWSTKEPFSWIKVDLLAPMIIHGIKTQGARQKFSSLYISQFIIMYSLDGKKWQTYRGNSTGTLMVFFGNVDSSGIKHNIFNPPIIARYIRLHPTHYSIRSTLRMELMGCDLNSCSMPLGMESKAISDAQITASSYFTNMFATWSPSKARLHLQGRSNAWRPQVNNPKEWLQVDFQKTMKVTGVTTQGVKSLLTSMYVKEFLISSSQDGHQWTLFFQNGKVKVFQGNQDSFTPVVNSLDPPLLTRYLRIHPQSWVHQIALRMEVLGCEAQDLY

T1 sequence (P00451 20-1667 limits assumed, one chain of several): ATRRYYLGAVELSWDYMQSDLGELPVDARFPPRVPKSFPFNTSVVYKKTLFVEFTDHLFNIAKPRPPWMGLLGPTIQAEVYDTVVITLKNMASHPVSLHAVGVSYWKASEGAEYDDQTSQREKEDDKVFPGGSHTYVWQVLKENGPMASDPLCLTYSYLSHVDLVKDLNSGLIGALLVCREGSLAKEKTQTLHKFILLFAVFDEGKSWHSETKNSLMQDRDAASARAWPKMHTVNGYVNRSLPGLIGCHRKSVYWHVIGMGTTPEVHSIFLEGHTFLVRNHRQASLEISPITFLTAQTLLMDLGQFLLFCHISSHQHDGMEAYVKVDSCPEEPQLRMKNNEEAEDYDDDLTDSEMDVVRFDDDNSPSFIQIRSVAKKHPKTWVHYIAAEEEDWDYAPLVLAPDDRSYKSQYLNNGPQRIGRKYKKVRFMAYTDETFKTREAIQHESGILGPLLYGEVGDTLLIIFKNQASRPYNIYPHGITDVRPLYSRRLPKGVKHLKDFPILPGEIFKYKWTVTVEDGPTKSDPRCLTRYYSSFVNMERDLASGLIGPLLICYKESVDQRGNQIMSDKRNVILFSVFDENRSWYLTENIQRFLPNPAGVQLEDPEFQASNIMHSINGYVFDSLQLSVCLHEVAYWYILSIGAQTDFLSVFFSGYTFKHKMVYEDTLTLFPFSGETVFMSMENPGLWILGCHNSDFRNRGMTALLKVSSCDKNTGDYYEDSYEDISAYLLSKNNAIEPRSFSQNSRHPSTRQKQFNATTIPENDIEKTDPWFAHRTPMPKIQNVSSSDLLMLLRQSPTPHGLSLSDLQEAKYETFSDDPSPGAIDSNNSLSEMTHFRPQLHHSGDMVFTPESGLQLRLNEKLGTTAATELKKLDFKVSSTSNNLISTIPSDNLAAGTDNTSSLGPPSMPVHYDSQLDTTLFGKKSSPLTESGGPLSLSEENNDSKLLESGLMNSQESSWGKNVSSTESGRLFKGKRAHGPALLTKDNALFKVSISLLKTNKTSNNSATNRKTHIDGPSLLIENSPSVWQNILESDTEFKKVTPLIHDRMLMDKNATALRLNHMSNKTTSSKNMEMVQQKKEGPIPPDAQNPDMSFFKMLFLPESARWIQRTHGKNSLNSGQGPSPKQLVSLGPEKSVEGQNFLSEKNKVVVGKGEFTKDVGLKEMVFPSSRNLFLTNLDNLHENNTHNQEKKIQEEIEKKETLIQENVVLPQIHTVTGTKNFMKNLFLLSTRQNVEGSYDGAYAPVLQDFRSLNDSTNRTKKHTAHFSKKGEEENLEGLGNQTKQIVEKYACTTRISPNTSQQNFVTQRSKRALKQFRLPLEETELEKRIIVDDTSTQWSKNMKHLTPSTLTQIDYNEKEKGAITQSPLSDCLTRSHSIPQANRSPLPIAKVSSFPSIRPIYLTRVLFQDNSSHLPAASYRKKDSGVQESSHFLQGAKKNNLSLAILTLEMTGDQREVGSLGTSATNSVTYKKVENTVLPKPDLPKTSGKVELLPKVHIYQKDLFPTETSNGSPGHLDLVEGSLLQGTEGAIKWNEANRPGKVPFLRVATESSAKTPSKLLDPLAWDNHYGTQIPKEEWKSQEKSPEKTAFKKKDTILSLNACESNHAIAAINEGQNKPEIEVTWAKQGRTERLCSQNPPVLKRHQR

Substance | % Binding pdFVIII [1] [%] | % Binding ReFacto [2] [%]
C-S-W-E-Y [S20] | 48.6 ± 3.3 | 45.3 ± 3.1
E-S-W-E-Y-C (ESWEYC) [S44] | 38.0 ± 2.4 | 35.1 ± 2.4
S-W-D-Y-C [S43] | 48.2 ± 2.8 | 35.6 ± 2.6
YF[Abu]WEYC [S36] | 62.0 ± 4.2 | 53.8 ± 5.0
YF[Abu]WEYC [S49] | 64.5 ± 4.0 | 54.4 ± 3.8
YHSWE[2Nal]C [S56] | 51.5 ± 3.4 | 51.5 ± 3.4
YHSWE[Bpa]C [S38] | 52.3 ± 4.1 | 59.2 ± 4.8
YHS[2Nal]EYC [S42] | 60.3 ± 2.2 | 47.8 ± 2.1
YHS[Bpa]E[Bpa]C [S51] | 63.4 ± 3.8 | 49.3 ± 3.5
YH[Abu]WEYC [S54] | 32.3 ± 2.6 | 44.4 ± 2.8

More lines, now with the values ahead:

% Binding pdFVIII [1] [%] | % Binding ReFacto [2] [%] | Substance
35.3 ± 2.4 | 36.4 ± 2.4 | Abu-W-E-Y-C [S50]
36.4 ± 2.6 | 38.4 ± 2.6 | Ac-E-S-W-E-Y-C (Ac-ESWEYC) [S45]
38.1 ± 2.7 | 42.5 ± 2.8 | S-W-E-Phg-C [S53]
37.0 ± 2.1 | 25.1 ± 1.9 | T-W-E-Y-C [S46]
52.0 ± 3.1 | 40.2 ± 2.9 | Y-H-S-W-D-Y-C (YHSWDYC) [S48]
51.5 ± 2.9 | 36.2 ± 2.1 | Y-H-S-W-E-Bip(4,4′)-C [S55]
47.5 ± 3.3 | 51.2 ± 3.4 | Y-H-T-W-D-Y-C (YHTWDYC) [S52]
47.5 ± 2.9 | 38.9 ± 2.8 | Y-H-T-W-E-Y-C (YHTWEYC) [S47]
